The results in this text go back to patent US8569292B2, “Cyclic inhibitors of 11β-hydroxysteroid dehydrogenase 1” (Vitae Pharmaceuticals, Inc., priority 2008, dated 2013).

Assay [1] deals with T1, CYP2C9 (Homo sapiens, UniProt P11712).
T1 construct: purchased Invitrogen 2859; host or cells: insect cells infected with baculovirus (microsomes)
As to the kind of experiment: Biological Test Example 7: CYP2C9 inhibition (naproxen O-demethylation). The class given is in vitro ADME.

Assay [2] addresses CYP2C19 (Homo sapiens, UniProt P33261). Description: Biological Test Example 8: CYP2C19 inhibition (diazepam N-demethylation). The class given is in vitro ADME.
Assay [3] has as its target CYP3A4 (Homo sapiens, UniProt P08684). Description: Biological Test Example 6: CYP3A4 inhibition (erythromycin N-demethylation). The class given is in vitro ADME.
Assay [4] concerns the target T1, CYP2C9. Description: Biological Test Example 9: CYP2C9 inhibition (Invitrogen kit, fluorogenic OOMR). The class given is in vitro ADME.
For assay [5], the target named is T2, 11β-HSD1 (Homo sapiens, UniProt P28845). As to the kind of experiment: Biological Test Example 4: microsomal 11β-HSD1 in the presence of 50% human plasma. As to conditions: for Shift: IC50 in Test Example 4 divided by IC50 in Test Example 1.
Assay [6] deals with T2, 11β-HSD1. As to the kind of experiment: biochemical. Conditions: for inhibition at 0.1 µM: read-out: Average % inhibition at 100 nM.
The mark [7] stands for this setting: Biological Test Example 1 IC50 (nM).
Setting [8] is: IC50 Range, Biological Test Example 1.

SMILES strings stand for the structures. Bounds are passed on as bounds.

T1 sequence (P11712 whole entry): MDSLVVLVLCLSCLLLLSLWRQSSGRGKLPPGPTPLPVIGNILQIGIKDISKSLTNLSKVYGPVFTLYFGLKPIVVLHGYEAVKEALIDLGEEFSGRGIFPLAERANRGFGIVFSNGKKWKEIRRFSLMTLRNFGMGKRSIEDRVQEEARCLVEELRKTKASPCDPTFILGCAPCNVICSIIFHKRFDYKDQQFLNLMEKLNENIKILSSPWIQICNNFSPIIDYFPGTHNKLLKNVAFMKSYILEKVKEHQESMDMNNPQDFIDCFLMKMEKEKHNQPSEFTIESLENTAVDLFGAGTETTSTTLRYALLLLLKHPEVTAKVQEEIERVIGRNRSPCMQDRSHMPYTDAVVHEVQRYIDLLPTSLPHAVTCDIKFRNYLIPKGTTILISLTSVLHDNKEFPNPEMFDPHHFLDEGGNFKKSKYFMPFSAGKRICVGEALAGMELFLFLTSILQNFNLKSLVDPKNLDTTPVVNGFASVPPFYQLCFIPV
Sequence of CYP2C19 (P33261 whole entry): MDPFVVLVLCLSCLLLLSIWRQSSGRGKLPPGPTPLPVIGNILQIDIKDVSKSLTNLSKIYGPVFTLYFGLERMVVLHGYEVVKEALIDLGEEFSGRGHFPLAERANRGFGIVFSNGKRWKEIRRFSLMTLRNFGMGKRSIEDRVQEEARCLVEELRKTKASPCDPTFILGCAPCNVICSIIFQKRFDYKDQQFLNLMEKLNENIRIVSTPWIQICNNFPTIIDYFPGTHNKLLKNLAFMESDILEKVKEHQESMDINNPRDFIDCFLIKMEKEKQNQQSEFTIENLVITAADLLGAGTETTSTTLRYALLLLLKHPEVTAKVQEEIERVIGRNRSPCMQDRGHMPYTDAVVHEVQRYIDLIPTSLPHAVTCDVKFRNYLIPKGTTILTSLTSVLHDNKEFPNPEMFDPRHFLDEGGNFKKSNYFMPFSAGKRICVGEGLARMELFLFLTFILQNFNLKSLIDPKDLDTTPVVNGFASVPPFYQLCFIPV
T2 sequence (P28845 whole entry): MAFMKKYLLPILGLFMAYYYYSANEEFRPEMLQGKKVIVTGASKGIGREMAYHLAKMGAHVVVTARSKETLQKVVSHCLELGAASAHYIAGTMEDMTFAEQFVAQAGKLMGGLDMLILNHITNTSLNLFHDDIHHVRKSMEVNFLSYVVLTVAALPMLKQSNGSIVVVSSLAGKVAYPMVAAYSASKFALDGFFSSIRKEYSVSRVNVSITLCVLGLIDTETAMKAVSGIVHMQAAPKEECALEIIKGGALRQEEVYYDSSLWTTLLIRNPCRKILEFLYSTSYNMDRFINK
Sequence of CYP3A4 (P08684 whole entry): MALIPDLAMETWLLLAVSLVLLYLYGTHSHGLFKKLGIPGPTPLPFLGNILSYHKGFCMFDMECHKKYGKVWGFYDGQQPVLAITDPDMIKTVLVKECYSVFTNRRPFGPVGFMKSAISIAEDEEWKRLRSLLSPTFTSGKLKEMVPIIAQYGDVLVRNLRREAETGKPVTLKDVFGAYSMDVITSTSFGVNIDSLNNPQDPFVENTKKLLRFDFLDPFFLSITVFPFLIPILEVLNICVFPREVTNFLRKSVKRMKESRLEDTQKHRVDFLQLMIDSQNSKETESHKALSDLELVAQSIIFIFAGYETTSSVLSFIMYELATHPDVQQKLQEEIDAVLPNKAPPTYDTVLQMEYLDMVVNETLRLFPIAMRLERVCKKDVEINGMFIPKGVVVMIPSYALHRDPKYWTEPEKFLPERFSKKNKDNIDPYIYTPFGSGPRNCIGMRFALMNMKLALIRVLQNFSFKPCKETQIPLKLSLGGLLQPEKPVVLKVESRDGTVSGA

Turning to `CCNC(=O)c1ccc(-c2ccc([C@H](C)N3CC[C@](CC(C)(C)O)(c4ccccc4)OC3=O)cc2)cn1` [EXAMPLE 168, 5-(4-{(S)-1-[(S)-6-(2-Hydroxy-2-methyl-propyl)-2-oxo-6-phenyl-[1,3]oxazinan-3-yl]-ethyl}-phenyl)-pyridine-2-carboxylic acid ethylamide], the figures for the IC50 in assay [1], in assay [2] and in assay [3] were 15100 nM, 7900 nM and 16800 nM, respectively.

As to `Cc1cnc(-c2ccc([C@H](C)N3CC[C@](CC(C)(C)O)(c4ccccc4)OC3=O)cc2)cn1` [EXAMPLE 151, (S)-6-(2-hydroxy-2-methylpropyl)-3-((S)-1-(4-(5-methylpyrazin-2-yl)phenyl)ethyl)-6-phenyl-1,3-oxazinan-2-one], the half-maximal inhibitory concentration (IC50) (in general, the point on the concentration scale where inhibition reaches its midpoint) in assay [1] worked out at 32600 nM; in assay [2], 32300 nM.

Regarding `C=CC[C@]1(c2ccc(F)cc2)CCN([C@@H](C)c2ccc(-c3cncc(F)c3)cc2)C(=O)O1` [EXAMPLE 51, (R)-6-allyl-6-(4-fluorophenyl)-3-((S)-1-(4-(5-fluoropyridin-3-yl)phenyl)ethyl)-1,3-oxazinan-2-one], the half-inhibitory concentration (IC50) in assay [4] was 700 nM; in assay [5], 60.7 nM; in assay [6] (setting [7]) it was 1.5 nM; in assay [6] (setting [8]) it was < 100 nM. Moreover, in assay [5], the Shift stood at 40.6. Besides, the inhibition (as a rule, the relative decrease from the control value, in per cent) at 0.1 µM in assay [6] was 96.1%.

For `C[C@@H](c1ccc(-c2ccn(C)n2)cc1)N1CC[C@](CCCO)(c2ccccc2)OC1=O` [EXAMPLE 100, (R)-6-(3-hydroxypropyl)-3-((S)-1-(4-(1-methyl-1H-pyrazol-3-yl)phenyl)ethyl)-6-phenyl-1,3-oxazinan-2-one], the IC50 in assay [4] is 4500 nM; in assay [5], 6 nM; in assay [6] (setting [7]), 1.2 nM; in assay [6] (setting [8]) it was < 100 nM. Further, the Shift in assay [5] turned out to be 4.8. The inhibition at 0.1 µM in assay [6] was determined as 93.1%.

`C[C@@H](c1ccc(-c2ccc(C(F)(F)F)nc2)cc1)N1CC[C@](CCCO)(c2ccc(F)cc2)OC1=O` [EXAMPLE 44, (R)-6-(4-fluorophenyl)-6-(3-hydroxypropyl)-3-((S)-1-(4-(6-(trifluoromethyl)pyridin-3-yl)phenyl)ethyl)-1,3-oxazinan-2-one]: the half-maximal inhibitory concentration (IC50) was 1400 nM in assay [4], 4.2 nM in assay [5], 0.7 nM in assay [6] (setting [7]) and < 100 nM in assay [6] (setting [8]). The inhibition at 0.1 µM in assay [6] was 100%.

For `C[C@@H](c1ccc(-c2cnc(-n3ccnc3)nc2)cc1)N1CC[C@](CC(C)(C)O)(c2ccccc2)OC1=O` [EXAMPLE 14, (S)-3-((S)-1-(4-(2-(1H-imidazol-1-yl)pyrimidin-5-yl)phenyl)ethyl)-6-(2-hydroxy-2-methylpropyl)-6-phenyl-1,3-oxazinan-2-one], the IC50 in assay [4] was 20100 nM; in assay [5], 4.5 nM; in assay [6] (setting [7]), 0.9 nM; in assay [6] (setting [8]) it was < 100 nM. For the same compound, the Shift in assay [5] was found to be 5.0. Also, the inhibition at 0.1 µM in assay [6] was 93.4%.

On to `C[C@@H](c1ccc(-c2ccccn2)cc1)N1CC[C@](CCCNS(C)(=O)=O)(c2ccccc2)OC1=O` [EXAMPLE 89, N-(3-((R)-2-oxo-6-phenyl-3-((S)-1-(4-(pyridin-2-yl)phenyl)ethyl)-1,3-oxazinan-6-yl)propyl)methanesulfonamide], for which the half-maximal inhibitory concentration (IC50) was 13300 nM in assay [4], 6.2 nM in assay [5], 0.6 nM in assay [6] (setting [7]) and < 100 nM in assay [6] (setting [8]). Moreover, the Shift in assay [5] is on record as 10.5. Also, the inhibition at 0.1 µM in assay [6] amounted to 98.9%.

With `C[C@@H](c1ccc(-c2ccc(C(N)=O)cn2)cc1)N1CC[C@](CC(C)(C)O)(c2ccccc2)OC1=O` [EXAMPLE 143, 6-(4-((S)-1-((S)-6-(2-hydroxy-2-methylpropyl)-2-oxo-6-phenyl-1,3-oxazinan-3-yl)ethyl)phenyl)nicotinamide], the IC50 in assay [1] and in assay [2] was > 50000 nM in each case.

Take `C[C@@H](c1ccc(-c2cccnc2)cc1)N1CC[C@](CCCNS(C)(=O)=O)(c2ccccc2)OC1=O` [EXAMPLE 91, N-(3-((R)-2-oxo-6-phenyl-3-((S)-1-(4-(pyridin-3-yl)phenyl)ethyl)-1,3-oxazinan-6-yl)propyl)methanesulfonamide]: the concentration for half-maximal inhibition (IC50) in assay [4] is 17300 nM; in assay [5], 13.7 nM; in assay [6] (setting [7]), 1.4 nM; in assay [6] (setting [8]) it was < 100 nM. Further, the inhibition at 0.1 µM in assay [6] was 90.2%.

With `C[C@@H](c1ccc(-c2ccc(C(N)=O)cn2)cc1)N1CC[C@](CCCO)(c2ccccc2)OC1=O` [EXAMPLE 140, 6-(4-((S)-1-((R)-6-(3-hydroxypropyl)-2-oxo-6-phenyl-1,3-oxazinan-3-yl)ethyl)phenyl)nicotinamide], the IC50 was 20600 nM in assay [4], 6.8 nM in assay [5], 1.1 nM in assay [6] (setting [7]) and < 100 nM in assay [6] (setting [8]). Also, the Shift in assay [5] came out at 6.4. For the same compound, the inhibition at 0.1 µM in assay [6] was determined as 98.7%.

Take `C[C@@H](c1ccc(-c2cncc(F)c2)cc1)N1CC[C@](CCCO)(c2ccc(F)cc2)OC1=O` [EXAMPLE 148, (R)-6-(4-fluorophenyl)-3-((S)-1-(4-(5-fluoropyridin-3-yl)phenyl)ethyl)-6-(3-hydroxypropyl)-1,3-oxazinan-2-one]: the half-maximal inhibitory concentration (IC50) is 1700 nM in assay [4], 4.8 nM in assay [5], 0.7 nM in assay [6] (setting [7]) and < 100 nM in assay [6] (setting [8]). The Shift in assay [5] was determined as 7.3. In assay [6], the inhibition at 0.1 µM came out at 97.4%.

Consider `COc1cncc(-c2ccc([C@H](C)N3CC[C@](CCCO)(c4ccc(F)cc4)OC3=O)cc2)c1` [EXAMPLE 53, (R)-6-(4-fluorophenyl)-6-(3-hydroxypropyl)-3-((S)-1-(4-(5-methoxypyridin-3-yl)phenyl)ethyl)-1,3-oxazinan-2-one], for which the IC50 is 6600 nM in assay [4], 18.5 nM in assay [5], 1.3 nM in assay [6] (setting [7]) and < 100 nM in assay [6] (setting [8]). For the same compound, the Shift in assay [5] came out at 14.6. Further, in assay [6], the inhibition at 0.1 µM came out at 98.7%.

Consider `COc1ccc(-c2ccc([C@H](C)N3CC[C@](CCCO)(c4ccc(F)cc4)OC3=O)cc2)cn1` [EXAMPLE 65, (R)-6-(4-fluorophenyl)-6-(3-hydroxypropyl)-3-((S)-1-(4-(6-methoxypyridin-3-yl)phenyl)ethyl)-1,3-oxazinan-2-one], for which the half-inhibitory concentration (IC50) was 4000 nM in assay [4], 3.8 nM in assay [5], 0.4 nM in assay [6] (setting [7]) and < 100 nM in assay [6] (setting [8]). Further, the Shift in assay [5] was found to be 8.8. Further, in assay [6], the inhibition at 0.1 µM turned out to be 99%.

Take `Cc1cc(-c2ccc([C@H](C)N3CC[C@](CCO)(c4ccc(F)cc4)OC3=O)cc2)ccn1` [EXAMPLE 75, (S)-6-(4-fluorophenyl)-6-(2-hydroxyethyl)-3-((S)-1-(4-(2-methylpyridin-4-yl)phenyl)ethyl)-1,3-oxazinan-2-one]: the 50% inhibitory concentration (IC50) is 12200 nM in assay [1]; 9100 nM in assay [4]; 9.8 nM in assay [5]; 1.1 nM in assay [6] (setting [7]); < 100 nM in assay [6] (setting [8]); 14900 nM in assay [3]. Besides, the inhibition at 0.1 µM in assay [6] is 97.7%.

Consider `CNC(=O)c1ccc(-c2ccc([C@H](C)N3CC[C@](CC(C)(C)O)(c4ccccc4)OC3=O)cc2)nc1` [EXAMPLE 150, 6-(4-{1-[6-(2-Hydroxy-2-methyl-propyl)-2-oxo-6-phenyl-[1,3]oxazinan-3-yl]-ethyl}-phenyl)-N-methyl-nicotinamide], for which the half-maximal inhibitory concentration (IC50) worked out at 28800 nM in assay [1] and 33800 nM in assay [2].
